Literature values, collected in patent EP3335699A1, “SELEXIPAG FORMULATION IN LIQUISOLID SYSTEM” (H e x a l Aktiengesellschaft, priority 2016, dated 2018).

Conditions: low solubility and low permeability; b10 refers to crystalline forms

CC(C)N(CCCCOCC(=O)NS(C)(=O)=O)c1cnc(-c2ccccc2)c(-c2ccccc2)n1 [selexipag]
BCS (Biopharmaceutics Classification System) class: class IV
